According to patent US11419335B2, “N-arylated analogues and uses thereof” (University of Florida Research Foundation, Incorporated, priority 2016, dated 2022):
Where two headings read alike, the source gives them in different places.

How the values were obtained:
[1] = system: Klebsiella pneumoniae (ATCC 13883); assay: MIC broth microdilution, K. pneumoniae 13883; format: cell-based
Method: (§1) The minimum inhibitory concentration (MIC) for each tested compound was determined by the broth microdilution method as recommended by the Clinical and Laboratory Standards Institute (CLSI). In a 96-well plate, eleven two-fold serial dilutions of each compound were made in a final volume of 100 μL Luria Broth. Each well was inoculated with ˜10^5 bacterial cells at the initial time of incubation, prepared from a fresh log phase culture (OD600 of 0.5 to 1.0 depending on bacterial strain). The MIC was defined as the lowest concentration of compound that prevented bacterial growth after incubating 16 to 18 hours at 37° C. (MIC values were supported by spectrophotometric readings at OD600). DMSO served as our vehicle and negative control in each microdilution MIC assay. DMSO was serially diluted with a top concentration of 1% v/v.
as §1, with “for each compound was” for “for each tested compound was”, “Standards Institute (CLSI).^6 In a” for “Standards Institute (CLSI). In a”, “concentration of test compound that” for “concentration of compound that”, “37° C. The concentration range tested for each compound during this study was 0.10 to 100 μM. DMSO served” for “37° C. (MIC values were supported by spectrophotometric readings at OD600). DMSO served”, “1% v/v. All MIC values were obtained from a minimum of three independent experiments.” for “1% v/v.”

C. neoformans ATCC 66031 = assay: Minimum fungicidal concentration assay, C. neoformans; format: cell-based; conditions: Table 2B
[2] = system: Escherichia coli clinical isolate (UAEC-1); assay: MIC broth microdilution, UAEC-1; format: cell-based; conditions: for MIC UAEC-1: Table 4; for MIC: Table 1
Method: as §1
as §1, with “for each compound was” for “for each tested compound was”, “Standards Institute (CLSI).^6 In a” for “Standards Institute (CLSI). In a”, “concentration of test compound that” for “concentration of compound that”, “37° C. The concentration range tested for each compound during this study was 0.10 to 100 μM. DMSO served” for “37° C. (MIC values were supported by spectrophotometric readings at OD600). DMSO served”, “1% v/v. All MIC values were obtained from a minimum of three independent experiments.” for “1% v/v.”

[3] = system: MRSA BAA-1707 stationary cultures; assay: MRSA persister cell kill kinetics (stationary cultures); format: cell-based, Staphylococcus aureus; conditions: 50 μM; after 90 minutes
Method: (§2) An overnight culture of MRSA BAA-1707 was diluted in fresh TSBG (1:13 to 1:20 fold) and allowed to grow with shaking. Once the culture reached stationary phase (4-6 hours), test compounds were added at a final test concentration of 50 μM. The cultures were incubated with shaking at 250 rpm and aliquots were removed and plated out at predetermined time points. Colony forming units (CFU) per milliliter data was recorded and plotted using Graphpad Prism 6.0.
The panel of membrane-active compounds was also evaluated head-to-head at 50 μM against MRSA BAA-1707 stationary cultures in kinetic killing experiments. Stationary cultures of S. aureus have elevated populations of metabolically dormant persister cells^36,37 and using this experiment, we could get multiple early time points to see if 1 and 2 were rapid killers of MRSA persister cells.
as §2, with “different” for “predetermined”

MRSA BAA-1707 biofilms = assay: Live/Dead staining of MRSA biofilms; format: cell-based, Staphylococcus aureus
Method: A mid-log culture of MRSA BAA-1707 was diluted 1:1000-fold and 500 μL was transferred to each compartment of a four-compartment CELLview dish (Greiner Bio-One 627871). The dish was then incubated for 24 hours at 37° C. to establish MRSA-1707 biofilms. After this time, the cultures were removed and the plate was washed with 0.9% saline. The dish was then treated with test compounds in fresh media at various concentrations. DMSO was used as a negative control in this assay. The dish was incubated with the test compound for 24 hours at 37° C. After this time, the cultures were removed and the dish was washed with 0.9% saline for 2 minutes. Saline was then removed and 500 μL of the stain (Live/Dead BacLight Viability Kit, Invitrogen) were added for 15 minutes and left in the dark. After this time, the stain was removed and the dish was washed twice with 0.9% saline. Then the dish was fixed with 500 μL 4% paraformaldehyde in PBS for 30 minutes. Images of remaining MRSA biofilms were then taken with a fluorescence microscope.

| MIC UAEC-1 [2] | MIC ([1]; Klebsiella pneumoniae, ATCC13883, Table 1, read-out: MIC K. pneumoniae 13883) [µM] | MIC ([1]; Klebsiella pneumoniae, ATCC13883, Table 4, read-out: MIC K. pneu. 13883) [µM] | MIC ([2]; Escherichia coli) [µM] | MIC ([1]; Table 1, read-out: MIC K. pneumoniae 13883) [µM] | MIC [2] [µM] | Compound | MIC K. pneu. 13883 ([1]; Table 4) | C. neoformans 66031 MBC (C. neoformans ATCC 66031) [µM] | reduction of stationary MRSA cells [3] [logs] | clearance of MRSA biofilms (fluorescence images) (MRSA BAA-1707 biofilms; FIG. 4, 24 hours after treatment) | clearance of established biofilms (Live/Dead staining) (MRSA BAA-1707 biofilms; at 31.3 μM) |
| --- | --- | --- | --- | --- | --- | --- | --- | --- | --- | --- | --- |
| 6.25 µM | – | – | – | – | – | CCCCCCCCCCCCCCCC[N+](C)(C)Cc1ccccc1.[Cl-] [BAC-16, reference compound] | 9.38a micromolar | 6.25 | – | – | – |
| 18.8a micromolar | 18.8 | 18.8 | 18.8 | – | – | CCCCCCCCCCCCCCCCn1cc[n+](Cc2ccccc2)c1C [NH125, 3-benzyl-1-hexadecyl-2-methyl-1H-imidazol-3-ium bromide, reference compound] | – | – | ~1 | potent clearance of MRSA biofilms | effective clearance of established biofilms |
| 12.5 µM | – | – | – | 25 | 12.5 | CCCCCCCCCCCC[N+](C)(C)CC[N+](C)(C)CC[N+](C)(C)CCCCCCCCCCCC [QAC-10, reference compound] | 25 µM | – | – | – | – |

| Compound | MIC UAEC-1 [2] | MIC ([1]; Klebsiella pneumoniae, ATCC13883, Table 1, read-out: MIC K. pneumoniae 13883) [µM] | MIC ([1]; Klebsiella pneumoniae, ATCC13883, Table 4, read-out: MIC K. pneu. 13883) [µM] | MIC ([2]; Escherichia coli) [µM] | MIC ([1]; Table 1, read-out: MIC K. pneumoniae 13883) [µM] | MIC [2] [µM] | MIC K. pneu. 13883 ([1]; Table 4) | C. neoformans 66031 MBC (C. neoformans ATCC 66031) [µM] | reduction of stationary MRSA cells [3] [logs] | clearance of MRSA biofilms (fluorescence images) (MRSA BAA-1707 biofilms; FIG. 4, 24 hours after treatment) | clearance of established biofilms (Live/Dead staining) (MRSA BAA-1707 biofilms; at 31.3 μM) |
| --- | --- | --- | --- | --- | --- | --- | --- | --- | --- | --- | --- |
| CCCCCCCCCCCCCCCCn1cc[n+](C)c1C.[I-] [Compound 8] | 12.5 µM | – | – | – | – | – | 12.5 µM | 6.25 | – | – | – |
| CCCCCCCCCCCCCCCCn1cc[n+](CCO)c1C.[Br-] [Compound 11] | 12.5 µM | – | – | – | – | – | 18.8a micromolar | 3.13 | – | – | – |
